According to article PMC8333062, “Chemical tools for epichaperome-mediated interactome dysfunctions of the central nervous system” (Nature Communications, 2021):
Where “and” joins values, the source holds several entries; their conditions need not be identical. Identical values can stand only once. Like-named read-outs stand apart in the source and are kept apart here.

How the values were obtained:
[1] = cited from earlier work
[2] = tested on: patient-derived GSCs; experiment: GSC viability (CellTiter-Glo, 48 h); type: cell-based, human; set-up: %Survival of cells at day 0 (ATP levels): concentration or dose not given beside the values; %Survival (ATP levels): reference not given here; settings: for %Survival (ATP levels): 1 μM, 48 h, individual replicates, listed as PU-H71; for %Survival of cells at day 0 (ATP levels): mean
[3] = target: HSP90 pools in JNPL3 (AD transgenic) mouse brain lysate; experiment: Fluorescence polarization (FP) competitive binding, cy3B-GM; settings: read-out: FP relative affinity
[4] = tested on: MDA-MB-468 cells; experiment: Cell viability, ATP levels 72 h; type: cell-based, human; settings: control MDA-MB-468 of Fig. 6f; mean
[5] = PAMPA-BBB permeability
[6] = Pharmacokinetic studies in mice (LC-MS/MS); type: in vivo, B6D2F1 mice; settings: male, B6D2F1, mouse, iv, i.v. 10 mg kg^−1
Protocol: Blood and brain tissue were collected following euthanasia at the scheduled time points of 5, 30 min, 1, 4, and 8 h following iv dosing and of 30 min, 1, 4, and 8 h following po dosing. Brain samples were immediately flash frozen in liquid nitrogen following collection and stored at −80 °C until analysis. Blood samples were collected into an EDTA tube by heart puncture and centrifuged at 17,000×g for 5 min at 4 °C to separate the plasma and immediately frozen on dry ice and stored at −80 °C until analysis. […] This was homogenized, extracted with methylene chloride, and evaporated on a GeneVac. […] Drug concentration (μM) in the brain was then modified to account for an average water space of 0.8 mL g^−1.

Structure (SMILES): CC(C)NCCCn1c(Sc2cc3c(cc2I)OCO3)nc2c(N)ncnc21 [Compound 1, reference compound]
- SUV average, Brain ([1]; 0.5 h, mean n=14): 0.17 SUV
- SUV average, Lung ([1]; 0.5 h, mean n=14): 0.66 SUV
- SUV average, Muscle ([1]; 0.5 h, mean n=14): 0.59 SUV
- SUV average, Brain ([1]; 3 h, mean n=24): 0.1104 SUV
- SUV average, Lung ([1]; 3 h, mean n=24): 0.37 SUV
- SUV average, Muscle ([1]; 3 h, mean n=24): 0.43 SUV
- SUV average, Brain ([1]; 24 h, mean n=24): 0.0956 SUV
- SUV average, Lung ([1]; 24 h, mean n=24): 0.18 SUV
- SUV average, Muscle ([1]; 24 h, mean n=24): 0.18 SUV
- %Survival (ATP levels) ([2]; GSC #5): 41.476% and 5.798% and 38.7842% and 30.5485%
- %Survival (ATP levels) ([2]; GSC #6): -6.57% and -27.89% and 1.15% and -9.59%
- %Survival (ATP levels) ([2]; GSC #7): -25.19% and -34.61% and -39.02% and -55.29%
- %Survival (ATP levels) ([2]; GSC #8): -77.2% and -77.91% and -68.52% and -70.63%
- %Survival (ATP levels) ([2]; GSC #9): -61.441% and -69.079% and -26.869% and -37.387% and -60.84%
- %Survival (ATP levels) ([2]; GSC #10): -33.379% and -62.081% and -10.588% and -35.788%
- %Survival (ATP levels) ([2]; GSC #13): 34.82% and 22.05% and 9.61% and -0.49%
- %Survival (ATP levels) ([2]; GSC #15): -13.07% and -44.27% and -29% and -48.76%
- %Survival (ATP levels) ([2]; GSC #18): -1.04% and -53.07% and -13.29% and -52.53% and 13.24% and -19.8%
- %Survival (ATP levels) ([2]; GSC #19): -8.867% and -20.5667% and 16.158% and 1.691%
- %Survival (ATP levels) ([2]; GSC #24): 12.98% and -42.57% and -22.24% and -59.3% and -24.55% and -39.04%
- %Survival (ATP levels) ([2]; GSC #30): -64.892% and -76.295% and -41.317% and -38.952%
- %Survival (ATP levels) ([2]; GSC #31): 52.42% and 26.79% and -5.03% and -0.87% and 70.08% and 45.37%
- %Survival of cells at day 0 (ATP levels) ([2]; GSC# 5): 29.1%
- %Survival of cells at day 0 (ATP levels) ([2]; GSC# 6): -10.7%
- %Survival of cells at day 0 (ATP levels) ([2]; GSC# 8): -73.6%
- %Survival of cells at day 0 (ATP levels) ([2]; GSC# 9): -51.1%
- %Survival of cells at day 0 (ATP levels) ([2]; GSC# 10): -35.4%
- %Survival of cells at day 0 (ATP levels) ([2]; GSC# 13): 16.5%
- %Survival of cells at day 0 (ATP levels) ([2]; GSC# 15): -33.8%
- %Survival of cells at day 0 (ATP levels) ([2]; GSC# 17): 16.9%
- %Survival of cells at day 0 (ATP levels) ([2]; GSC# 18): -21.1%
- %Survival of cells at day 0 (ATP levels) ([2]; GSC# 19): -2.9%
- %Survival of cells at day 0 (ATP levels) ([2]; GSC# 24): -29.1%
- %Survival of cells at day 0 (ATP levels) ([2]; GSC# 30): -55.4%
- %Survival of cells at day 0 (ATP levels) ([2]; GSC# 31): 31.5%
- EC50 [3]: 11 nM
- %Survival of cells at day 0 (ATP levels) [4]: -92.5%
- PAMPA_BBB ([5]; Supplementary Table 6): 7.3±0.5
- Papp at 16 h, 50 μM ([5]; pig, PAMPA, pH 7.4): 7.3 ×10⁻⁶ cm/s
- AUC ([6]; brain, read-out: brain exposure, AUC): 0.89 µM·h
- AUC ([6]; plasma, read-out: plasma exposure, AUC): 3.47 µM·h
